How the values were obtained:
[1] = system: bacteria in Table 1; assay: Planktonic bacterial growth suppression, statements pooled over the species tested; format: cell-based, oral bacteria
Protocol: (§1) Set forth in Table 1 are the species of oral bacteria which were evaluated. These species are atiologic agents and periodontal disease, gingivitis, or caries that would lend themselves to treatment with a solid-phase metal titanate compound. […] All bacteria were cultured from frozen stocks expanded from ATCC cultures; the absence of contamination was verified at each thaw via Gram stain. All bacteria were grown over 24 h to mid-log phase before inoculating experimental cultures.
One hundred μL of the initial culture was plated in 96 well plate format number of bacterial cells present in a given volume of culture was determined by correlating OD reading of bacterial culture at 595 nm to the number of cells present. […] Prior to exposing bacteria to metal-titanate compounds, appropriate dilutions of each bacterial species were made so that metal-titanate compounds are consistently exposed to 3.56E9 bacteria for all species tested. […]
For metal ions alone, 5 μL of a concentrated stock solution of the respective metal salt were added to 95 μL of the bacterial cultures (n=8 per condition). […] After 24 h, the cultures were thoroughly mixed prior to reading the OD. […]
The initial and final mean and standard deviation OD readings were plotted as a function of concentration. […]

[2] = system: mammalian cells; details: metal ion alone; based on previous reports; cited from earlier work
[3] = system: Prevotella intermedia (Pi); assay: Planktonic bacterial growth suppression (OD at 595 nm, 24 h exposure); format: cell-based; details: concentrations ≦1500 μM
Protocol: as §1
(§2) One hundred μL of the initial culture was plated in 96 well plate format number of bacterial cells present in a given volume of culture was determined by correlating OD reading of bacterial culture at 595 nm to the number of cells present. […] Prior to exposing bacteria to metal-titanate compounds, appropriate dilutions of each bacterial species were made so that metal-titanate compounds are consistently exposed to 3.56E9 bacteria for all species tested. This strategy assured the same cell to titanate particle ratio, allowed repeatability, and allowed log growth phase throughout the 24 h time when bacteria were exposed to the titanates. A 24 h incubation time with titanates was chosen to maximize the exposure to the titanates without risking a culture deteriorating from overgrowth.
(§3) For metal ions alone, 5 μL of a concentrated stock solution of the respective metal salt were added to 95 μL of the bacterial cultures (n=8 per condition). […] The cultures were mixed to ensure contact between the titanates and the bacteria. MST and APT suspensions were thoroughly mixed prior to addition to ensure accurate transfer of the particles. […] Titanate-bacterial cultures were incubated for 24 h under the conditions appropriate for each type of bacterium. After 24 h, the cultures were thoroughly mixed prior to reading the OD. Control cultures for experiments included cultures of media alone (no titanates or bacteria), titanates in media (no bacteria), and bacteria alone (no titanates). […] All experiments were repeated in triplicate to assure reproducibility.
(§4) The initial and final mean and standard deviation OD readings were plotted as a function of concentration. The titanate only controls were also plotted as a baseline. Cultures were statistically compared (two-sided Student's t-tests, α=0.05) to determine significant effects of the titanates (with or without added metal) on bacterial growth.
(§5) A similar strategy was used to assess the antibacterial action of the metal ions alone, so that the relative efficacy of the titanates alone and titanate metal complexes could be compared to the metal ions alone. The delivery potential of metal ion from the titanate-metal complexes was determined by calculating the total metal mass complexed with the titanates at each titanate particle concentration.

[4] = system: Actinomyces naeslundii (An); assay: as above; format: cell-based
Protocol: as §1, §2, §3, §4, §5

[5] = Aqueous solubility of the metal chloride salt; format: physicochemical

O.O.O.[Cl][Au-]([Cl])([Cl])[Cl].[H+] [Au(III), HAuCl4•3H2O]
Relative potency among the metal ions alone ([1]; metal ions alone, excepting Pt(II)): most potent | Inhibitory concentration for mammalian cells [2]: 60 to 115 µM | Effect of metal ion alone on Pi [3]: no observable effect | An growth suppression by metal ion alone ([4]; >10 μM): completely suppressed

[Cl][Pd][Cl] [Pd(II), PdCl2]
Inhibitory concentration for mammalian cells [2]: 100 to 300 µM | An growth suppression by metal ion alone ([4]; >1000 μM): approximately 30%

[Cl][Pt][Cl] [Pt(II), PtCl2]
Aqueous solubility of the chloride salt [5]: limited aqueous solubility

[Cl][Pt][Cl] [Pt(IV), PtCl2]
Inhibitory concentration for mammalian cells [2]: 25 µM | An growth suppression by metal ion alone ([4]; concentrations ≦750 μM): not suppressed

CC[C@H]1OC(=O)[C@H](C)[C@@H](O[C@H]2C[C@@](C)(OC)[C@@H](O)[C@H](C)O2)[C@H](C)[C@@H](O[C@@H]2O[C@H](C)C[C@H](N(C)C)[C@H]2O)[C@](C)(O)C[C@@H](C)C(=O)[C@H](C)[C@@H](O)[C@]1(C)O [erythromycin]
Bacteriostatic control (Bac-Em) ([1]; bacteria with erythromycin 100 μg/mL, no titanates): behaved as expected
